Results taken from patent publication US6710044B2, “Technical field” (NeuroSearch A/S, priority 1996, dated 2004).

Assays:
[1] = target: benzodiazepine receptor sites (GABAA receptor complex); experiment: In vitro inhibition of 3H-flunitrazepam (3H-FNM) binding, cerebral cortex membranes; conditions: inhibition of specific binding of 3H-FNM (1 nM), rat cerebral cortex membranes, 40 min at 2° C.
Procedure: The affinity of various potential ligands for the benzodiazepine receptor sites can thus be evaluated by estimating the ability of test compounds to displace ^3H-flunitrazepam.
Tissue Preparation: Preparations are performed at 0-4° C. unless otherwise indicated.
Cerebral cortex from male Wistar rats (150-200 g) is homogenized for 5-10 sec in 20 ml Tris-HCl (30 mM, pH 7.4) using an Ultra-Turrax homogenizer. The suspension is centrifuged at 27,000×g for 15 min, and the pellet is washed three times with buffer (centrifuged at 27,000×g for 10 min). The washed pellet is homogenized in 20 ml of buffer and incubated on a water bath (37° C.) for 30 min to remove endogenous GABA and then centrifuged for 10 min at 27,000×g. The pellet is then homogenized in buffer and centrifuged for 10 min at 27,000×g. The final pellet is resuspended in 30 ml buffer and the preparation is frozen and stored at −20° C.
Assay: The membrane preparation is thawed and centrifuged at 2° C. for 10 min at 27,000×g. The pellet is washed twice with 20 ml 50 mM Tris-citrate, pH 7.1 using an Ultra-Turrax homogenizer and centrifuged for 10 min at 27,000×g. The final pellet is resuspended in 50 mM Tris-citrate, pH 7.1 (500 ml buffer per g of original tissue), and then used for binding assays. Aliquots of 0.5 ml tissue are added to 25 μl of test solution and 25 μl of ^3H-FNM (1 nM, final concentration), mixed and incubated for 40 min at 2° C. Non-specific binding is determined using clonazepam (1 μM, final concentration). After incubation the samples are added 5 ml of ice-cold buffer and poured directly onto Whatman GF/C glass fibre filters under suction and immediately washed with 5 ml ice-cold buffer. The amount of radioactivity on the filters is determined by conventional liquid scintillation counting. Specific binding is total binding minus non-specific binding.
The test value is calculated as the IC50 (the concentration (nM) of the test substance which inhibits the specific binding of ^3H—FNM by 50%).

SMILES	melting point [°C]	IC50 [1] [nM]
COC(=O)CON=C(C)c1ccc2c(c1)ncn2-c1cccc(N2CCN(CCO)CC2)c1 [compound 5c1, 5-Acetyl-1-(3-(4-(2-hydroxyethyl)piperazin-1-yl)phenyl)benzimidazole O-(methoxy-carbonylmethyl) oxime]	117 to 119	19
CCOC(=O)c1cccc(-n2cnc3cc(-c4ccno4)ccc32)c1 [compound 6a2, 5-(5-Isoxazolyl)-1-(3-ethoxycarbonyl)phenyl benzimidazole]	156 to 157	3
O=C(OCc1ccccn1)c1cccc(-n2cnc3cc(-c4ccccc4)ccc32)c1 [compound 6b3, 5-Phenyl-1-(3-(2-picolyloxycarbonyl)phenyl)benzimidazole]	149 to 150	8
CCOC(=O)C(=CN1CCN(c2cccc(-n3cnc4cc(-c5ccoc5)ccc43)c2)CC1)C(=O)OCC [compound 6c6, 5-(3-Furanyl)-1-(3-(4-(2,2-bis(ethoxycarbonyl)ethenyl)piperazin-1-yl)phenyl)-benzimidazole]	97 to 102	7
